Patent US11000033B2, “Ketone or oxime compound, and herbicide” (NISSAN CHEMICAL CORPORATION, priority 2014, dated 2021)

Experiments:
Type in all cases: in vivo
[1] = system: Scirpus juncoides; assay: Test Example 2: herbicidal activity, application during weed generation in submerged conditions (symbol B); conditions: Table 23; application herbicide amount 320 g/ha; grade 0-5 by criteria of Test Example 1
Summary of the method: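 Treatment timing was the one- to two-leaf stage, with diluted emulsifiable compound dropped onto the paddy water (depth 4 cm) over alluvial soil. All three species grew from a mixed sowing in a 25° C. to 30° C. greenhouse. Injury was judged by eye 3 weeks on.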

[2] = system: corn; assay: Test Example 4: effect on crop by soil treatment (symbol c); conditions: application herbicide amount 320 g/ha
Summary of the method: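 Crop seed is sown in spots together with several weed species in a box of sterilized diluvial soil. It is covered by about 1.5 cm of soil and kept in a greenhouse held between 25° C. and 30° C.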

[3] = system: Digitaria ciliaris; assay: Test Example 5: herbicidal effect by foliage application, plastic box (symbol F); conditions: 320 g/ha, 3 weeks after application
Summary of the method: (§1)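 Emulsion formulation, diluted with water to the intended rate, was applied uniformly to leaves by small sprayer. Recipients were 14-day greenhouse-grown seedlings (25° C. to 30° C.). Assessment followed at 3 weeks.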

[4] = system: rice; assay: Test Example 4: effect on crop by soil treatment (symbol b); conditions: application herbicide amount 320 g/ha
Summary of the method: (§2)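 Plants are raised in a greenhouse (25° C. to 30° C.) from spot-sown seed, which sits under about 1.5 cm of sterilized diluvial soil in a box shared with weed species.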

[5] = system: Avena fatua; assay: Test Example 4: herbicidal effect by soil treatment (symbol I); conditions: application herbicide amount 320 g/ha
Summary of the method: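 Seeds were sown in sterilized diluvial soil, covered with about 1.5 cm of soil, and the soil surface was sprayed with a water-diluted emulsion of the compound at a predetermined rate. Plants grew in a greenhouse at 25° C. to 30° C.; effects were scored visually 3 weeks after application.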

[6] = system: Lolium multiflorum Lam.; assay: Test Example 5: herbicidal effect by foliage application, plastic box (symbol K); conditions: 320 g/ha, 3 weeks after application
Summary of the method: as §1

[7] = system: soybean; assay: Test Example 5: effect on crop by foliage application, plastic box (symbol d); conditions: 320 g/ha, 3 weeks after application
Summary of the method: (§3)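 Plants were raised from seed in a greenhouse (25° C. to 30° C.) after sowing in a plastic box of sterilized diluvial soil.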

[8] = system: corn; assay: Test Example 5: effect on crop by foliage application, plastic box (symbol c); conditions: 320 g/ha, 3 weeks after application
Summary of the method: as §3

[9] = system: Galium spurium; assay: Test Example 5: herbicidal effect by foliage application, plastic box (symbol Q); conditions: 320 g/ha, 3 weeks after application
Summary of the method: as §1

[10] = system: Monochoria vaginalis; assay: Test Example 1: herbicidal activity, application before weed generation in submerged conditions (symbol C); conditions: application herbicide amount 320 g/ha
Summary of the method: (§4)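 Mixed weed seeds sown in alluvial soil under 4 cm of water, with rice seedlings at the 2.5-leaf stage added. Same-day treatment: emulsion diluted to a set herbicide amount onto the water. Three weeks at 25–30 °C, then graded on a six-step scale.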

[11] = system: rapeseed; assay: Test Example 4: effect on crop by soil treatment (symbol g); conditions: application herbicide amount 320 g/ha
Summary of the method: as §2

[12] = system: Veronica persica; assay: Test Example 5: herbicidal effect by foliage application, plastic box (symbol R); conditions: 320 g/ha, 3 weeks after application
Summary of the method: as §1

[13] = system: Scirpus juncoides; assay: Test Example 1: herbicidal activity, application before weed generation in submerged conditions (symbol B); conditions: application herbicide amount 320 g/ha
Summary of the method: as §4

[14] = system: Chenopodium album; assay: Test Example 5: herbicidal effect by foliage application, plastic box (symbol O); conditions: 320 g/ha, 3 weeks after application
Summary of the method: as §1

SMILES | Herbicidal effect grade, B: Scirpus juncoides [1] | c: corn, effect on crop grade [2] | F: Digitaria ciliaris, herbicidal effect (criteria of Test Example 1) [3] | b: directly sowed rice plant, effect on crop grade [4] | I: Avena fatua, herbicidal effect grade [5] | K: Lolium multiflorum Lam., herbicidal effect (criteria of Test Example 1) [6] | d: soybean, effect on crop (criteria of Test Example 1) [7] | c: corn, effect on crop (criteria of Test Example 1) [8] | Q: Galium spurium, herbicidal effect (criteria of Test Example 1) [9] | Herbicidal effect grade, C: Monochoria vaginalis [10] | g: rapeseed, effect on crop grade [11] | R: Veronica persica, herbicidal effect (criteria of Test Example 1) [12] | Herbicidal effect grade, B: Scirpus juncoides [13] | F: Digitaria ciliaris, herbicidal effect grade [3] | K: Lolium multiflorum Lam., herbicidal effect grade [6] | d: soybean, effect on crop grade [7] | c: corn, effect on crop grade [8] | Q: Galium spurium, herbicidal effect grade [9] | R: Veronica persica, herbicidal effect grade [12] | O: Chenopodium album, herbicidal effect grade [14] | also measured
CON=C(C)CC1CC(OS(=O)(=O)N(C)C)=C(c2c(C)cc(-c3ccc(F)cc3)cc2C)C1=O (mixture of isomers) [6-060] | 4 (Herbicidal ratio of 70% or higher and lower than 90%) | 0 (Herbicidal ratio of 5% or lower (almost no effect)) | 5 (Herbicidal ratio of 90% or more (almost completely withered)) | 3 (Herbicidal ratio of 40% or higher and lower than 70%) | 0 (Herbicidal ratio of 5% or lower (almost no effect)) | 5 (Herbicidal ratio of 90% or more (almost completely withered)) | 1 (Herbicidal ratio of 5% or higher and lower than 20%) | 5 (Herbicidal ratio of 90% or more (almost completely withered)) | 4 (Herbicidal ratio of 70% or higher and lower than 90%) | 5 (Herbicidal ratio of 90% or more (almost completely withered)) | 0 (Herbicidal ratio of 5% or lower (almost no effect)) | 4 (Herbicidal ratio of 70% or higher and lower than 90%) | 5 (Herbicidal ratio of 90% or more (almost completely withered)) | – | – | – | – | – | – | – | O: Chenopodium album, herbicidal effect (criteria of Test Example 1) [14]: 4 (Herbicidal ratio of 70% or higher and lower than 90%)
CON=C(C)CC1CC(OC(=O)COc2ccccc2)=C(c2c(C)cc(-c3ccc(Cl)cc3)cc2C)C1=O (mixture of isomers) [6-061] | 4 (Herbicidal ratio of 70% or higher and lower than 90%) | 0 (Herbicidal ratio of 5% or lower (almost no effect)) | 5 (Herbicidal ratio of 90% or more (almost completely withered)) | 5 (Herbicidal ratio of 90% or more (almost completely withered)) | 4 (Herbicidal ratio of 70% or higher and lower than 90%) | 5 (Herbicidal ratio of 90% or more (almost completely withered)) | 3 (Herbicidal ratio of 40% or higher and lower than 70%) | 5 (Herbicidal ratio of 90% or more (almost completely withered)) | 3 (Herbicidal ratio of 40% or higher and lower than 70%) | 1 (Herbicidal ratio of 5% or higher and lower than 20%) | 3 (Herbicidal ratio of 40% or higher and lower than 70%) | 4 (Herbicidal ratio of 70% or higher and lower than 90%) | 1 (Herbicidal ratio of 5% or higher and lower than 20%) | – | – | – | – | – | – | – | O: Chenopodium album, herbicidal effect (criteria of Test Example 1) [14]: 4 (Herbicidal ratio of 70% or higher and lower than 90%)
CON=C(C)CC1CC(OC(=O)C2CC2)=C(c2c(C)cc(C)cc2C)C1=O (stereo not shown) [1-015] | 4 (Herbicidal ratio of 70% or higher and lower than 90%) | – | – | – | – | – | – | – | – | 2 (Herbicidal ratio of 20% or higher and lower than 40%) | – | – | 5 (Herbicidal ratio of 90% or more (almost completely withered)) | 5 (Herbicidal ratio of 90% or more (almost completely withered)) | 5 (Herbicidal ratio of 90% or more (almost completely withered)) | 5 (Herbicidal ratio of 90% or more (almost completely withered)) | 5 (Herbicidal ratio of 90% or more (almost completely withered)) | 4 (Herbicidal ratio of 70% or higher and lower than 90%) | 4 (Herbicidal ratio of 70% or higher and lower than 90%) | 3 (Herbicidal ratio of 40% or higher and lower than 70%) | c (corn) effect on crop grade [2]: 4 (Herbicidal ratio of 70% or higher and lower than 90%); b (directly sowed rice plant) effect on crop grade [4]: 5 (Herbicidal ratio of 90% or more (almost completely withered)); I (Avena fatua) herbicidal effect grade [5]: 5 (Herbicidal ratio of 90% or more (almost completely withered)); g (rapeseed) effect on crop grade [11]: 4 (Herbicidal ratio of 70% or higher and lower than 90%)
COC(=O)CON=C(C)CC1CC(O)=C(c2c(C)cc(C)cc2C)C1=O (stereo not shown) [1-023] | 0 (Herbicidal ratio of 5% or lower (almost no effect)) | – | – | – | – | – | – | – | – | 0 (Herbicidal ratio of 5% or lower (almost no effect)) | – | – | 0 (Herbicidal ratio of 5% or lower (almost no effect)) | 2 (Herbicidal ratio of 20% or higher and lower than 40%) | 4 (Herbicidal ratio of 70% or higher and lower than 90%) | 0 (Herbicidal ratio of 5% or lower (almost no effect)) | 1 (Herbicidal ratio of 5% or higher and lower than 20%) | 2 (Herbicidal ratio of 20% or higher and lower than 40%) | 0 (Herbicidal ratio of 5% or lower (almost no effect)) | 0 (Herbicidal ratio of 5% or lower (almost no effect)) | c (corn) effect on crop grade [2]: 0 (Herbicidal ratio of 5% or lower (almost no effect)); b (directly sowed rice plant) effect on crop grade [4]: 5 (Herbicidal ratio of 90% or more (almost completely withered)); I (Avena fatua) herbicidal effect grade [5]: 0 (Herbicidal ratio of 5% or lower (almost no effect)); g (rapeseed) effect on crop grade [11]: 0 (Herbicidal ratio of 5% or lower (almost no effect))
CON=C(C)CC1CC(O)=C(c2c(C)cc(C3CC3)cc2C)C1=O (stereo not shown) [6-050] | 0 (Herbicidal ratio of 5% or lower (almost no effect)) | 1 (Herbicidal ratio of 5% or higher and lower than 20%) | – | 5 (Herbicidal ratio of 90% or more (almost completely withered)) | 2 (Herbicidal ratio of 20% or higher and lower than 40%) | – | – | – | – | 0 (Herbicidal ratio of 5% or lower (almost no effect)) | 2 (Herbicidal ratio of 20% or higher and lower than 40%) | – | 1 (Herbicidal ratio of 5% or higher and lower than 20%) | 4 (Herbicidal ratio of 70% or higher and lower than 90%) | 5 (Herbicidal ratio of 90% or more (almost completely withered)) | 0 (Herbicidal ratio of 5% or lower (almost no effect)) | 4 (Herbicidal ratio of 70% or higher and lower than 90%) | 3 (Herbicidal ratio of 40% or higher and lower than 70%) | 2 (Herbicidal ratio of 20% or higher and lower than 40%) | 3 (Herbicidal ratio of 40% or higher and lower than 70%) | –
